# Data reported in patent US11524938B2, “Aromatic sulfonamide derivatives” (Bayer Pharma Aktiengesellschaft, priority 2016, dated 2022).
# Target: T1, human P2X4 (Homo sapiens, UniProt Q99571)
# T1 sequence (Q99571 1-388): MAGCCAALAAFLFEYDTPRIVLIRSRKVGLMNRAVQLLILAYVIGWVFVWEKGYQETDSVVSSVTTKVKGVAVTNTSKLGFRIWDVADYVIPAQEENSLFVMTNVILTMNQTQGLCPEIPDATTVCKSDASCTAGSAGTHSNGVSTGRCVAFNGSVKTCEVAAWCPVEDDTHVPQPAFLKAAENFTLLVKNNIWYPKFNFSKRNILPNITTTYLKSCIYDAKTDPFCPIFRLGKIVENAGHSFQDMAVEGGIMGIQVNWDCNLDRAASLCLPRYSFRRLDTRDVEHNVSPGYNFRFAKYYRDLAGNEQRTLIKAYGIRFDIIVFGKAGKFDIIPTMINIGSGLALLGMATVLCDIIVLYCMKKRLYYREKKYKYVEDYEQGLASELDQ
# Test: Human P2X4 HEK Cell FLIPR Assay
# Assay type: cell-based
# Settings: agonist Bz-ATP at EC80; for Emax: HEK293, HEK293 cells, percentage of maximal inhibition, read-out: Human P2X4 HEK Cells (FLIPR Assay) avg Efficacy [%]; for IC50: HEK293 cells, individual values listed where some fall outside detection range
# Procedure, shortened: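 Calcium flux read by FLIPR for 120 sec after Bz-ATP challenge at EC80 (established each assay day), following 30 min room-temperature compound preincubation in dye-loaded stable human P2X4 HEK293 cells. Peak RFU over basal normalized to agonist control; IC50, maximal inhibition and Hill coefficient from triplicate means.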
SMILES,Emax [%],IC50 [nM]
"Cn1cc(-c2ncc(NC(=O)Cc3ccccc3Cl)cc2S(N)(=O)=O)cn1 [Example 302, 2-(2-Chlorophenyl)-N-[6-(1-methyl-1H-pyrazol-4-yl)-5-sulfamoylpyridin-3-yl]acetamide]",97,56
"N#Cc1cnn(-c2ccc(NC(=O)Cc3ccc(F)c(F)c3)cc2S(N)(=O)=O)c1 [Example 189, N-[4-(4-Cyano-1H-pyrazol-1-yl)-3-sulfamoylphenyl]-2-(3,4-difluorophenyl)acetamide]",60,199
"NS(=O)(=O)c1cc(NC(=O)Cc2ccccc2Cl)ccc1-n1cnc2cnccc21 [Example 45, 2-(2-Chlorophenyl)-N-[4-(1H-imidazo[4,5-c]pyridin-1-yl)-3-sulfamoylphenyl]-acetamide]",74,75
"NS(=O)(=O)c1cc(NC(=O)Cc2ccccc2Cl)ccc1-c1ccncc1 [Example 552, 2-(2-Chlorophenyl)-N-[4-(pyridin-4-yl)-3-sulfamoylphenyl]acetamide]",88,1
"Cc1ccccc1CC(=O)Nc1ccc(-n2cc(Br)cn2)c(S(N)(=O)=O)c1 [Example 66, N-[4-(4-Bromo-1H-pyrazol-1-yl)-3-sulfamoylphenyl]-2-(2-methylphenyl)acetamide]",90,86
"Cc1ccccc1CC(=O)Nc1ccc(-n2cc(F)cn2)c(S(N)(=O)=O)c1 [Example 154, N-[4-(4-Fluoro-1H-pyrazol-1-yl)-3-sulfamoylphenyl]-2-(2-methylphenyl)acetamide]",84,30
"Cc1cn(-c2ccc(NC(=O)Cc3ccccc3Cl)cc2S(N)(=O)=O)nc1C [Example 542, 2-(2-Chlorophenyl)-N-[4-(3,4-dimethyl-1H-pyrazol-1-yl)-3-sulfamoylphenyl]acetamide]",97,20
"NS(=O)(=O)c1cc(NC(=O)Cc2ccccc2OC(F)F)ccc1-n1cc(C(F)(F)F)cn1 [Example 125, 2-[2-(Difluoromethoxy)phenyl]-N-{3-sulfamoyl-4-[4-(trifluoromethyl)-1H-pyrazol-1-yl]phenyl}acetamide]",86,292
"CC(C)(C)c1cnn(-c2ccc(NC(=O)Cc3ccccc3Cl)cc2S(N)(=O)=O)c1 [Example 394, N-[4-(4-tert-Butyl-1H-pyrazol-1-yl)-3-sulfamoylphenyl]-2-(2-chlorophenyl)acetamide]",86,740
"NS(=O)(=O)c1cc(NC(=O)Cc2c(F)cccc2Cl)ccc1-n1cc(C(F)(F)F)cn1 [Example 113, 2-(2-Chloro-6-fluorophenyl)-N-{3-sulfamoyl-4-[4-(trifluoromethyl)-1H-pyrazol-1-yl]phenyl}acetamide]",86,133
"NS(=O)(=O)c1cc(NC(=O)Cc2ccccc2Cl)ccc1-c1cnc(OCC(F)(F)F)nc1 [Example 284, 2-(2-Chlorophenyl)-N-{3-sulfamoyl-4-[2-(2,2,2-trifluoroethoxy)pyrimidin-5-yl]phenyl}-acetamide]",94,54
"Cc1ccc(Cl)c(CC(=O)Nc2ccc(-n3cc(F)cn3)c(S(N)(=O)=O)c2)c1 [Example 165, 2-(2-Chloro-5-methylphenyl)-N-[4-(4-fluoro-1H-pyrazol-1-yl)-3-sulfamoylphenyl]-acetamide]",93,42
"NS(=O)(=O)c1cc(NC(=O)Cc2ccccc2F)ccc1-n1cc(C(F)F)cn1 [Example 378, N-{4-[4-(Difluoromethyl)-1H-pyrazol-1-yl]-3-sulfamoylphenyl}-2-(2-fluorophenyl)acetamide]",84,89
"NS(=O)(=O)c1cc(NC(=O)Cc2ccc(C(F)(F)F)cc2)ccc1-c1ccc(Cl)nc1 [Example 462, N-[4-(6-Chloropyridin-3-yl)-3-sulfamoylphenyl]-2-[4-(trifluoromethyl)phenyl]acetamide]",89,929
"NS(=O)(=O)c1cc(NC(=O)Cc2ccccc2Cl)ccc1-c1cn[nH]c1 [Example 367, 2-(2-Chlorophenyl)-N-[4-(1H-pyrazol-4-yl)-3-sulfamoylphenyl]acetamide]",83,131
"NS(=O)(=O)c1cc(NC(=O)Cc2ccccc2OC(F)(F)F)ccc1-n1cc(Cl)cn1 [Example 92, N-[4-(4-Chloro-1H-pyrazol-1-yl)-3-sulfamoylphenyl]-2-[2-(trifluoromethoxy)-phenyl]acetamide]",92,143
"NS(=O)(=O)c1cc(NC(=O)Cc2ccccc2Cl)ccc1-n1cnc(C2CC2)n1 [Example 36, (2-Chlorophenyl)-N-[4-(3-cyclopropyl-1H-1,2,4-triazol-1-yl)-3-sulfamoylphenyl]-acetamide]",81,667

SMILES,Emax [%],IC50 [nM]
"NS(=O)(=O)c1cc(NC(=O)Cc2ccccc2F)ccc1-n1nnc2c(F)cc(F)cc21 [Example 480, N-[4-(4,6-Difluoro-1H-benzotriazol-1-yl)-3-sulfamoylphenyl]-2-(2-fluorophenyl)acetamide]",105,125
"Cc1csc(-c2ccc(NC(=O)Cc3ccccc3Cl)cc2S(N)(=O)=O)n1 [Example 425, 2-(2-Chlorophenyl)-N-[4-(4-methyl-1,3-thiazol-2-yl)-3-sulfamoylphenyl]acetamide]",74,50
"NS(=O)(=O)c1cc(NC(=O)Cc2ccccc2F)ccc1-n1cc2ccccc2n1 [Example 397, 2-(2-Fluorophenyl)-N-[4-(2H-indazol-2-yl)-3-sulfamoylphenyl]acetamide]",43,> 25000
"Cc1ncsc1-c1ccc(NC(=O)Cc2ccccc2Cl)cc1S(N)(=O)=O [Example 504, 2-(2-Chlorophenyl)-N-[4-(4-methyl-1,3-thiazol-5-yl)-3-sulfamoylphenyl]acetamide]",98,33
"NS(=O)(=O)c1cc(NC(=O)Cc2ccccc2Cl)ccc1-n1cc(CC(F)(F)F)cn1 [Example 518, 2-(2-Chlorophenyl)-N-{3-sulfamoyl-4-[4-(2,2,2-trifluoroethyl)-1H-pyrazol-1-yl]phenyl}acetamide]",80,36
"Cn1cc(-c2ccc(NC(=O)Cc3cccc(F)c3Cl)cc2S(N)(=O)=O)cn1 [Example 334, 2-(2-Chloro-3-fluorophenyl)-N-[4-(1-methyl-1H-pyrazol-4-yl)-3-sulfamoylphenyl]-acetamide]",98,18
"N#Cc1cnn(-c2ccc(NC(=O)Cc3ccccc3F)cc2S(N)(=O)=O)c1 [Example 52, N-[4-(4-Cyano-1H-pyrazol-1-yl)-3-sulfamoylphenyl]-2-(2-fluorophenyl)acetamide]",82,154
"NS(=O)(=O)c1cc(NC(=O)Cc2ccccc2Cl)ccc1-c1cnn(CC2CC2)c1 [Example 267, 2-(2-Chlorophenyl)-N-{4-[1-(cyclopropylmethyl)-1H-pyrazol-4-yl]-3-sulfamoyl-phenyl}acetamide]",98,2
"NS(=O)(=O)c1cc(NC(=O)Cc2ccccc2Cl)ccc1-c1cnn(CCN2CCCC2)c1 [Example 281, 2-(2-Chlorophenyl)-N-(4-{1-[2-(pyrrolidin-1-yl)ethyl]-1H-pyrazol-4-yl}-3-sulfamoyl-phenyl)acetamide]",76,481
"NS(=O)(=O)c1cc(NC(=O)Cc2ccccc2Cl)ccc1-n1cc(-c2ccccn2)cn1 [Example 402, 2-(2-Chlorophenyl)-N-{4-[4-(pyridin-2-yl)-1H-pyrazol-1-yl]-3-sulfamoylphenyl}acetamide]",85,41
"N#Cc1cnn(-c2ccc(NC(=O)Cc3cccnc3Cl)cc2S(N)(=O)=O)c1 [Example 201, 2-(2-Chloropyridin-3-yl)-N-[4-(4-cyano-1H-pyrazol-1-yl)-3-sulfamoylphenyl]-acetamide]",83,4330
"N#Cc1cc(NC(=O)Cc2ccccc2Cl)cc(S(N)(=O)=O)c1-n1cc(F)cn1 [Example 247, 2-(2-Chlorophenyl)-N-[3-cyano-4-(4-fluoro-1H-pyrazol-1-yl)-5-sulfamoyl-phenyl]acetamide]",64,69
"CCOc1ccccc1CC(=O)Nc1ccc(-n2cc(Cl)cn2)c(S(N)(=O)=O)c1 [Example 175, N-[4-(4-Chloro-1H-pyrazol-1-yl)-3-sulfamoylphenyl]-2-(2-ethoxyphenyl)acetamide]",88,226
"N#Cc1cn(-c2ccc(NC(=O)Cc3ccccc3Cl)cc2S(N)(=O)=O)nc1O [Example 500, 2-(2-Chlorophenyl)-N-[4-(4-cyano-3-hydroxy-1H-pyrazol-1-yl)-3-sulfamoylphenyl]acetamide]",40,> 25000
"Cc1ccc(CC(=O)Nc2ccc(-n3ncc(C(F)(F)F)n3)c(S(N)(=O)=O)c2)cc1 [Example 408, 2-(4-Methylphenyl)-N-{3-sulfamoyl-4-[4-(trifluoromethyl)-2H-1,2,3-triazol-2-yl]phenyl}acetamide]",74,2640
"NS(=O)(=O)c1cc(NC(=O)Cc2ccccc2Cl)ccc1-n1cnc(Br)c1 [Example 42, N-[4-(4-Bromo-1H-imidazol-1-yl)-3-sulfamoylphenyl]-2-(2-chlorophenyl)acetamide]",71,24
